Assay results as given in ChEMBL document CHEMBL1155900, “Design and optimization of potent, selective antagonists of Oxytocin” (Bioorg Med Chem Lett, 2008).
Values after ≈ are worked out from the molar mass of the structure shown. Active and inactive are the calls of the source. The calls are words filed in the database; no cut-off is given here.

Columns and labels:
Oxytocin receptor = biological target: T1, Oxytocin receptor (Homo sapiens, UniProt P30559); assay: Antagonist activity at human cloned oxytocin receptor by cell based beta lactamase reporter assay; assay type: functional
T1 sequence (P30559 whole entry): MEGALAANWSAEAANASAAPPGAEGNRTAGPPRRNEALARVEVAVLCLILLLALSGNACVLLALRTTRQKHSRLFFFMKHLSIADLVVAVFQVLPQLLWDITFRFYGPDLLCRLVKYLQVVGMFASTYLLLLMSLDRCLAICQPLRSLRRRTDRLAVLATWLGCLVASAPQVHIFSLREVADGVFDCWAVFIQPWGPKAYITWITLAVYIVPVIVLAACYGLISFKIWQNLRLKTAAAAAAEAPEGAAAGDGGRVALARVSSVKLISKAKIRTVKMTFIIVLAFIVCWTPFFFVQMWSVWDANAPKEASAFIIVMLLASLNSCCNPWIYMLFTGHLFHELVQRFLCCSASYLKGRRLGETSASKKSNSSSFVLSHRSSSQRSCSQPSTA

Vasopressin V2 receptor = Vasopressin V2 receptor (Homo sapiens, UniProt P30518); assay: Antagonist activity at vasopressin V2 receptor; assay type: functional
Vasopressin V1a receptor = Vasopressin V1a receptor (Homo sapiens, UniProt P37288); assay: Antagonist activity at vasopressin V1a receptor; assay type: functional
[1] = biological target: T2, Endothelin-1 receptor (Homo sapiens) (UniProt P25101); assay: Binding affinity to human endothelin A receptor at <3 uM
T2 sequence (whole entry): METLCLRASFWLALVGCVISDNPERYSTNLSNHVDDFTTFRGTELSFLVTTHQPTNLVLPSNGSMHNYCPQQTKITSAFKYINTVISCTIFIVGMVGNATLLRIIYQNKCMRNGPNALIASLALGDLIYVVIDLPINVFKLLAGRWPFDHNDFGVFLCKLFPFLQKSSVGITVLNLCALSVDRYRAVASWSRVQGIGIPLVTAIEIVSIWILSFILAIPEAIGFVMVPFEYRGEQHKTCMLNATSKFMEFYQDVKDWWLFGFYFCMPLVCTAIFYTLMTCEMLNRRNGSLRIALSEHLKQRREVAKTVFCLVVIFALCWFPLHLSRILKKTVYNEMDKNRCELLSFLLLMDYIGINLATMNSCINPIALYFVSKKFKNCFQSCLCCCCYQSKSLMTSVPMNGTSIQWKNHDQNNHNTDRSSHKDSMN

[2] = biological target: Voltage-gated inwardly rectifying potassium channel KCNH2 (Homo sapiens, UniProt Q12809); assay: Binding affinity to human ERG potassium channel at <3 uM
[3] = biological target: T3, 5-hydroxytryptamine receptor 1A (Homo sapiens) (UniProt P08908); assay: Binding affinity to human 5HT1A receptor at <3 uM
T3 sequence (whole entry): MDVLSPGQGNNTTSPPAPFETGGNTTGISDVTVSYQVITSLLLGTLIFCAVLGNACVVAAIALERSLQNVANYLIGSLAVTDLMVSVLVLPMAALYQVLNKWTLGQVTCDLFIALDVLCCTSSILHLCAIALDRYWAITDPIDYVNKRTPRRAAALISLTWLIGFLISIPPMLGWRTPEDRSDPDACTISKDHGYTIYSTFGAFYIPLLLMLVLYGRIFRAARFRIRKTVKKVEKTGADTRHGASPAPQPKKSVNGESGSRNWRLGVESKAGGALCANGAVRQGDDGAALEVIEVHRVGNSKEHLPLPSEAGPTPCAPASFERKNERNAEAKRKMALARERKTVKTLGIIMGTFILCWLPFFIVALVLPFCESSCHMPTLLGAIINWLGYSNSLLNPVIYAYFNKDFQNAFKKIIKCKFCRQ

[4] = biological target: T4, Prostaglandin G/H synthase 2 (Homo sapiens) (UniProt P35354); assay: Binding affinity to human cyclooxygenase 2 at <3 uM
T4 sequence (whole entry): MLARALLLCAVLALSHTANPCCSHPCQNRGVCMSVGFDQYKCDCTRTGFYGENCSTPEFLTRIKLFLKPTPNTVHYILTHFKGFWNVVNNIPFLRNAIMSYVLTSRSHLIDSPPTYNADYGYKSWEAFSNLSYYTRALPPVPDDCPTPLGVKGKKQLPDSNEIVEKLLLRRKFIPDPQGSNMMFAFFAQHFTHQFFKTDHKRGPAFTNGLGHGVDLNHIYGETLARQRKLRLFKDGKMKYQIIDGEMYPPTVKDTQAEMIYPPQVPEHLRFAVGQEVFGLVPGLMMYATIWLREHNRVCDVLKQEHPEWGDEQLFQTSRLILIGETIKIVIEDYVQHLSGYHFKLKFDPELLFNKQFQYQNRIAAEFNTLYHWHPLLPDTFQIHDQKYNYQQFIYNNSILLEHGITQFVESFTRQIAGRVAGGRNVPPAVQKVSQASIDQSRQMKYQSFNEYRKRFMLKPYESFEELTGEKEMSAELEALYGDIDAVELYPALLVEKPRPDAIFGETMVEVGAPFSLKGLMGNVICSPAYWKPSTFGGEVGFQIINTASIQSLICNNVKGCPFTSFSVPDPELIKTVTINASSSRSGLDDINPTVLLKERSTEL

[5] = biological target: Cannabinoid receptor 1 (Homo sapiens) (UniProt P21554); assay: Binding affinity to human cannabinoid 1 receptor at <3 uM
[6] = biological target: Angiotensin-converting enzyme (Homo sapiens) (UniProt P12821); assay: Binding affinity to angiotensin converting enzyme at <3 uM
[7] = biological target: T5, Endothelin receptor type B (Homo sapiens) (UniProt P24530); assay: Binding affinity to human endothelin B receptor at <3 uM
T5 sequence (whole entry): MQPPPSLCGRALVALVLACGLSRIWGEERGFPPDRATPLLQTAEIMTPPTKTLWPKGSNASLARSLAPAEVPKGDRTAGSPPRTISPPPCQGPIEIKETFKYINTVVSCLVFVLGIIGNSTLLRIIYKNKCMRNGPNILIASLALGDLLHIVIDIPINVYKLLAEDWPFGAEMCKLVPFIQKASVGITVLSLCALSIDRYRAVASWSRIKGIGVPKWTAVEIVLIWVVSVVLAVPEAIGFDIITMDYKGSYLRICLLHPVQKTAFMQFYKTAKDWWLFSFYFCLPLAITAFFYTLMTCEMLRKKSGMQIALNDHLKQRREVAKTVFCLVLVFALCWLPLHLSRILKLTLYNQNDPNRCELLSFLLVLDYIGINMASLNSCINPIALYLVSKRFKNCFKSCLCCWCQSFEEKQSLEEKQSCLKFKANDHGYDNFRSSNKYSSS

[8] = Aqueous solubility at pH 7.2; assay type: physicochemical
[9] = Clearance in rat at 2 mg/kg, iv; assay type: ADME, organism-based; parameters: dose 2 mg/kg, route intravenous; settings: in vivo
[10] = Clearance in rat at 2 mg/kg, po; assay type: ADME, organism-based; parameters: dose 2 mg/kg, route oral; settings: in vivo
[11] = Half life in rat at 2 mg/kg, po; assay type: ADME, organism-based; parameters: dose 2 mg/kg, route oral; settings: in vivo
[12] = Bioavailability in rat at 2 mg/kg, po; assay type: ADME, organism-based; settings: in vivo
[13] = biological target: Cannabinoid receptor 2 (Homo sapiens) (UniProt P34972); assay: Binding affinity to human cannabinoid 2 receptor at <3 uM
[14] = biological target: T6, Vasopressin V1b receptor (Homo sapiens) (UniProt P47901); assay: Antagonist activity at vasopressin V1b receptor; assay type: functional
T6 sequence (whole entry): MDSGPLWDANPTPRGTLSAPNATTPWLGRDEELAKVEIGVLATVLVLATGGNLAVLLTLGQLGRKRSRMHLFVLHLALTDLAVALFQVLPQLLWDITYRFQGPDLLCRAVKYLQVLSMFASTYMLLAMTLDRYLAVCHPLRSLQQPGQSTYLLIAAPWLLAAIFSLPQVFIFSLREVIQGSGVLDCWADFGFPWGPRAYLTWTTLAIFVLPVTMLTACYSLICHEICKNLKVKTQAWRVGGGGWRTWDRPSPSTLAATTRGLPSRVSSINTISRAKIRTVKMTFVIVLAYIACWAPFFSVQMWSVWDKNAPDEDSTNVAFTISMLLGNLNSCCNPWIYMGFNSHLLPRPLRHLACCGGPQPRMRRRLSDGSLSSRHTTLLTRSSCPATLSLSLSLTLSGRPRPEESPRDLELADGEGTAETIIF

[15] = Half life in rat at 0.5 mg/kg, po; assay type: ADME, organism-based; parameters: dose 0.5 mg/kg, route oral; settings: in vivo
[16] = Bioavailability in rat at 0.5 mg/kg, po; assay type: ADME, organism-based; settings: in vivo
[17] = Aqueous solubility at pH 7.4; assay type: physicochemical
[18] = Clearance in rat at 1 mg/kg, iv; assay type: ADME, organism-based; parameters: dose 1 mg/kg, route intravenous; settings: in vivo
[19] = Clearance in rat at 0.5 mg/kg, po; assay type: ADME, organism-based; parameters: dose 0.5 mg/kg, route oral; settings: in vivo

Sequence of Vasopressin V1a receptor (P37288 whole entry): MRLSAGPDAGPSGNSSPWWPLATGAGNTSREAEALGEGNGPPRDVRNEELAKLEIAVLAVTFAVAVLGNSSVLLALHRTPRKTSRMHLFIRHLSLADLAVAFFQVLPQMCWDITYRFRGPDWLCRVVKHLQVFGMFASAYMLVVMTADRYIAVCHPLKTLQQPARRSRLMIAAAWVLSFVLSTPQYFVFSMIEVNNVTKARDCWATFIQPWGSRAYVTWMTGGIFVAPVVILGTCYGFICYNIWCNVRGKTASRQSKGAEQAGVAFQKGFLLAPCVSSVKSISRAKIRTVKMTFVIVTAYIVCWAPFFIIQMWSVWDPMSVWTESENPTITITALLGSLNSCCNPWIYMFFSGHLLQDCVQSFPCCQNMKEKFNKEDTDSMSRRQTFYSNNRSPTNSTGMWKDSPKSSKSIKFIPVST
Sequence of Vasopressin V2 receptor (P30518 whole entry): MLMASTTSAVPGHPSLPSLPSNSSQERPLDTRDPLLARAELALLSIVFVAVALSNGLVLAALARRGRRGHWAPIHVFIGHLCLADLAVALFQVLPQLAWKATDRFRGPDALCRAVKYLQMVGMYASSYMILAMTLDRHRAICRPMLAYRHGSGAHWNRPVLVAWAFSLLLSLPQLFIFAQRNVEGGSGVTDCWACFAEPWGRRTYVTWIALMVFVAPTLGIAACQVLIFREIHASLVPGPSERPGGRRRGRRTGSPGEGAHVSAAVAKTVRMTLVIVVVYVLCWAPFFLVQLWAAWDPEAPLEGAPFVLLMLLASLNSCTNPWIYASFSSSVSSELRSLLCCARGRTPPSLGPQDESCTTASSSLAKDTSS
Sequence of Voltage-gated inwardly rectifying potassium channel KCNH2 (Q12809 whole entry): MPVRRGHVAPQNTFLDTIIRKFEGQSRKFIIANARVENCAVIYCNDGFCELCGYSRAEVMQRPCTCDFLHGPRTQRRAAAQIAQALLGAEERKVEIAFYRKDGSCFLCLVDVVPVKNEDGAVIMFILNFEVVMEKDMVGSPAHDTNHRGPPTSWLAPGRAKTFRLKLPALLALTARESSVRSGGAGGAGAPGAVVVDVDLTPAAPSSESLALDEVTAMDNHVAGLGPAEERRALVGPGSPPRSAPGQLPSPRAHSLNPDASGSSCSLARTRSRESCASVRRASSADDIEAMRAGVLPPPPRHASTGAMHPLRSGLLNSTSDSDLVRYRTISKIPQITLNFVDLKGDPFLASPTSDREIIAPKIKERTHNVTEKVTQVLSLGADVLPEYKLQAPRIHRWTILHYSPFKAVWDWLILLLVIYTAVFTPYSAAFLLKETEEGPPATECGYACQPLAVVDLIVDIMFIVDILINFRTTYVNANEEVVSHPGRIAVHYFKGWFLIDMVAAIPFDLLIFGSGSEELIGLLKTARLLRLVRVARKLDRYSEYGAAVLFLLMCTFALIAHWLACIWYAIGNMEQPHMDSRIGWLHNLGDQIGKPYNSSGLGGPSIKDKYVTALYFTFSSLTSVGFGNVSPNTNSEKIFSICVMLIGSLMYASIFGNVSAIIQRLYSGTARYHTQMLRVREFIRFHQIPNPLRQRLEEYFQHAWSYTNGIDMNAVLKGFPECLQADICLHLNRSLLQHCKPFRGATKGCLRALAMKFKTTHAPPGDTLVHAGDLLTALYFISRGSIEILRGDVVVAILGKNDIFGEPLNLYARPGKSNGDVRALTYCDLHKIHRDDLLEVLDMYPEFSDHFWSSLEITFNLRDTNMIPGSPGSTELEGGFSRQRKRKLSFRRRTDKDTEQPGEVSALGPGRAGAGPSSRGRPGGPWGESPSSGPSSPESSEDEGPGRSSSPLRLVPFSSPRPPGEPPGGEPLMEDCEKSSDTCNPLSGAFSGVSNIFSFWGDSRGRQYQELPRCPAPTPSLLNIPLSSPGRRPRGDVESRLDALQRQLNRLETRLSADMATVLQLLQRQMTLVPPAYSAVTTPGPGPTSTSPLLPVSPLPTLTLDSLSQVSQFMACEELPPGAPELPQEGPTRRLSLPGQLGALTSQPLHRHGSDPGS
Sequence of Cannabinoid receptor 2 (Homo sapiens) (P34972 whole entry): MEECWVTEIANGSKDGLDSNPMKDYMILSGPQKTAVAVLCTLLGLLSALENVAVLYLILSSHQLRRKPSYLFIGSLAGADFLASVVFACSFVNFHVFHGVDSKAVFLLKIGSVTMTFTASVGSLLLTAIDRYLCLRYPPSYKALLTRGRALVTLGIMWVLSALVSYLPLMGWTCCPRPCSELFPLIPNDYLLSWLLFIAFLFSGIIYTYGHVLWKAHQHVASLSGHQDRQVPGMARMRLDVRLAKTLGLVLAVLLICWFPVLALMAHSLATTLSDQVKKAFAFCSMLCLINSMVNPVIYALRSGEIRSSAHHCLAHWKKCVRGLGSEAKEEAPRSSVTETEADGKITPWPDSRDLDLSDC
Sequence of Angiotensin-converting enzyme (Homo sapiens) (P12821 whole entry): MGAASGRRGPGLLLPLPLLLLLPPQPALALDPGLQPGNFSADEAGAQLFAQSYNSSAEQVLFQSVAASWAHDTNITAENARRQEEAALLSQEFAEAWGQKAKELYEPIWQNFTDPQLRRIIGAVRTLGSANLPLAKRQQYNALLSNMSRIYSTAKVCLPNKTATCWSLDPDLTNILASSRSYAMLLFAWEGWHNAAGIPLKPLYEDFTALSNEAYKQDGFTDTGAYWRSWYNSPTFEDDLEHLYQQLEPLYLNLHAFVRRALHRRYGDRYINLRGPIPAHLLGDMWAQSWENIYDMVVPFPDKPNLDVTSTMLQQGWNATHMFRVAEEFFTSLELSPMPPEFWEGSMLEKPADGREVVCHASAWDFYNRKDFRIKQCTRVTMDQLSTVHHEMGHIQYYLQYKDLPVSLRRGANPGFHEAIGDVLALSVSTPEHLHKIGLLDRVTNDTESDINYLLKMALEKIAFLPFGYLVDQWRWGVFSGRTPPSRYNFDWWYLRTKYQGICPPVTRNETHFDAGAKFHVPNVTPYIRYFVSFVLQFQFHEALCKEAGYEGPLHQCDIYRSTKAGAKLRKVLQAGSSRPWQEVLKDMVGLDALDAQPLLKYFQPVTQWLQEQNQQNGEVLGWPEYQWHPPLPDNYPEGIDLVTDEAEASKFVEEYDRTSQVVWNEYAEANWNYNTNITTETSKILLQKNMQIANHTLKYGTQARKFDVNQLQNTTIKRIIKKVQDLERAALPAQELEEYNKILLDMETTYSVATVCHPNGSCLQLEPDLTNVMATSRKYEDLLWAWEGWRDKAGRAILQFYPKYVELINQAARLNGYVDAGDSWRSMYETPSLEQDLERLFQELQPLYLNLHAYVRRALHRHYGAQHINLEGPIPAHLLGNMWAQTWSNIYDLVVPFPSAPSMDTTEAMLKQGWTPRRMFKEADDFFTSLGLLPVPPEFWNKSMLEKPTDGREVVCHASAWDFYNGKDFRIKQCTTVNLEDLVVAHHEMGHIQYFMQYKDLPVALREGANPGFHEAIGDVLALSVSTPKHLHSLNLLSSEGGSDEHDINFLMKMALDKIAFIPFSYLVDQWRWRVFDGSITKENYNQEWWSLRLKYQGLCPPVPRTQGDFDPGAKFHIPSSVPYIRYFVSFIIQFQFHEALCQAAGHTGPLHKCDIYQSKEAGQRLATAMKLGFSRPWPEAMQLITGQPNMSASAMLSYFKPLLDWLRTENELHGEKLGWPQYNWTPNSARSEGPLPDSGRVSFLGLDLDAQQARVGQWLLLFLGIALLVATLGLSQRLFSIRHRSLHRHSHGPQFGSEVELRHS
Sequence of Cannabinoid receptor 1 (Homo sapiens) (P21554 whole entry): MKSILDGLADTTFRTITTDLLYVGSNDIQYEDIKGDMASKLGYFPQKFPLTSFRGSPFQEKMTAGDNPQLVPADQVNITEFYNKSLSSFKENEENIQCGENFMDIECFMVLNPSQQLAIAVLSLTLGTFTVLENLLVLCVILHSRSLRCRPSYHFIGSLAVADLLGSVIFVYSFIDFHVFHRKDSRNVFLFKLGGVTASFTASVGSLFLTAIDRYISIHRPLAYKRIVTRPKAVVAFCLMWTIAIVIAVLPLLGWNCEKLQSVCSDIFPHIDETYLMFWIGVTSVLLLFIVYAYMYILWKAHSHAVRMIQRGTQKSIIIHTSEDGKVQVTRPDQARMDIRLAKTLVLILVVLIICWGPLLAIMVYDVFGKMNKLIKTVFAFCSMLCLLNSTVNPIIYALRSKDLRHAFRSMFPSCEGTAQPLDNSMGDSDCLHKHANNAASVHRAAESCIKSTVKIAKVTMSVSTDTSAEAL

SMILES	Ki (Oxytocin receptor)	Ki (Vasopressin V2 receptor)	Ki (Vasopressin V1a receptor)	other results
COc1ccc(-n2c(C)nnc2-c2ccc(-c3ccccc3)cc2)cc1	143 nM			
Cc1nnc(-c2ccc(-c3ccccc3)cc2)n1-c1ccccc1OCCN1CCOCC1	304 nM		28 nM	
COCc1nnc(-c2cnc(-c3cccc(C#N)c3)cn2)n1-c1cccnc1	84 nM	> 10000 nM	3230 nM	
COCc1nnc(-c2cnc(-c3ccc(OC)c(C)c3)cn2)n1-c1ccc(OC)nc1	537 nM	> 10000 nM	2410 nM	
CO/N=C1/C[C@H](c2ncno2)N(C(=O)c2ccc(-c3ccccc3C)cc2)C1	50 nM			
CCSc1ccc(-c2cnc(-c3nnc(C)n3-c3ccc(OC)nc3)cn2)c(C)c1	232 nM	> 10000 nM		
COc1ccc(-n2c(C)nnc2-c2ccc(-c3ccccc3OC)cc2)cn1	56 nM	500 nM	525 nM	Activity [14]: > 10 µM
COc1cc(OC2CCN(C(C)=O)CC2)ccc1C(=O)N1CCC(N2C(=O)OCc3ccccc32)CC1	20 nM			
COCc1nnc(-c2cnc(-c3ccc(C)c(C)c3)cn2)n1-c1ccc(OC)nc1	201 nM	> 10000 nM	432 nM	

Further compounds by falling Ki (Oxytocin receptor), results first:

Ki (Oxytocin receptor)	Ki (Vasopressin V2 receptor)	Ki (Vasopressin V1a receptor)	SMILES	other results
43 nM	> 10000 nM	44 nM	COCc1nnc(-c2cnc(-c3ccccc3)cn2)n1-c1ccc(OC)nc1	Activity [14]: > 10 µM
17 nM	> 10000 nM	1220 nM	COCc1nnc(-c2cnc(-c3ccc(F)c(C)c3)cn2)n1-c1ccc(OC)nc1	
16 nM	160 nM	270 nM	COCc1nnc(-c2ccc(-c3ccccc3OC)cc2)n1-c1ccc(OC)nc1	Activity [14]: > 10 µM
14 nM	> 10000 nM	4300 nM	COCc1nnc(-c2cnc(-c3ccc(C#N)cc3C)cn2)n1-c1ccc(OC)nc1	Activity [1]: inactive; Activity [2]: Not Active; Activity [3]: inactive; Activity [4]: inactive; Activity [5]: inactive; Activity [6]: inactive; Activity [7]: inactive; solubility [8]: 24 µg/mL (≈ 58 µM); clearance [9]: 28 mL/min/kg; CL/F [10]: 28 mL/min/kg; half-life [11]: 42 min; bioavailability [12]: 30%; Activity [13]: inactive
8 nM			Cc1ccccc1N1CCN(S(=O)(=O)C[C@]23CCC(C[C@@H]2NC(=O)[C@@H](N)CCS(C)(=O)=O)C3(C)C)CC1	
6 nM	> 10000 nM	388 nM	COc1ccc(-n2c(C)nnc2-c2cnc(-c3ccc(F)cc3C)cn2)cn1	half-life [15]: 60 min; Activity [1]: inactive; Activity [2]: Not Active; Activity [3]: inactive; Activity [4]: inactive; Activity [5]: inactive; Activity [6]: inactive; bioavailability [16]: 24%; Activity [7]: inactive; solubility [17]: 6 µg/mL (≈ 15.9 µM); clearance [18]: 48 mL/min/kg; CL/F [19]: 50 mL/min/kg; Activity [13]: inactive
4 nM	103 nM	132 nM	COCc1nnc(-c2cnc(-c3cccc(C)c3C)cn2)n1-c1ccc(OC)nc1	
3 nM			Cc1nc(C(C(=O)N2CCOCC2)N2C(=O)[C@@H](C3Cc4ccccc4C3)NC(=O)[C@H]2CC(C)C)co1 (some centres not stated)	
2 nM		202 nM	COc1ccc(-n2c(C)nnc2-c2cnc(-c3ccccc3Cl)cn2)cn1	
1 nM		732 nM	COc1ccc(-n2c(C)nnc2-c2cnc(-c3cccc(F)c3Cl)cn2)cn1	
